Test results published in paper PMC1920558 (PLoS ONE, 2007).
Entries after “also recorded” stand apart in the source; their conditions may differ. Where a SMILES comes first, the peptide text is derived from it.

What was measured:
[1] = system: NEP; assay: NEP digestion, products by RP-HPLC and MS; assay type: in vitro ADME; conditions: 37°C; for effect of NEP exposure on peptide level: 60 µM peptide, 1.2 µM NEP, 4 hours, 100 mM Tris-HCl pH 7.4, 1% Triton X-100, RP-HPLC
Experimental: Figure 4 NEP preferentially degrades monomeric forms of AChE586-599. (A) 60 µM of either substance P or T40 were incubated with or without 1.2 µM NEP (37°C, 4 hours) and the digestion mixture subjected to RP-HPLC. (B) Positions of NEP initial cleavages (arrows) within AChE586-599. (C) Cleavage map after complete NEP digestion of AChE586-599. 40 µM AChE586-599 was incubated with 772 nM NEP (30 min (B) or 4 hours (C), 37°C) and RP-HPLC peaks analyzed by MS. (D) NEP degrades AChE586-599 oligomers. […] Digestion products were analyzed as described in Figure 3C. Arrows indicate two digested AChE586-599 oligomers. (E) T40/IDE products are substrates for NEP. 60 µM T40 was incubated with 50 nM IDE (37°C, 30 min) and products separated by RP-HPLC. Peaks e–f (see Figure. 2C) were lyophilized, incubated with 772 nM NEP (37°C, 2 hours) and subjected to RP-HPLC.
60 µM substance P or T40 were incubated with or without 1.2 µM NEP (4 hours), stopped (0.5% trifluoroacetic acid) and subjected to RP-HPLC.

[2] = molecular target: T1, IDE (Rattus norvegicus, UniProt P35559); assay: IDE digestion, products by RP-HPLC and MS; conditions: 37°C
T1 sequence (P35559 1-1019): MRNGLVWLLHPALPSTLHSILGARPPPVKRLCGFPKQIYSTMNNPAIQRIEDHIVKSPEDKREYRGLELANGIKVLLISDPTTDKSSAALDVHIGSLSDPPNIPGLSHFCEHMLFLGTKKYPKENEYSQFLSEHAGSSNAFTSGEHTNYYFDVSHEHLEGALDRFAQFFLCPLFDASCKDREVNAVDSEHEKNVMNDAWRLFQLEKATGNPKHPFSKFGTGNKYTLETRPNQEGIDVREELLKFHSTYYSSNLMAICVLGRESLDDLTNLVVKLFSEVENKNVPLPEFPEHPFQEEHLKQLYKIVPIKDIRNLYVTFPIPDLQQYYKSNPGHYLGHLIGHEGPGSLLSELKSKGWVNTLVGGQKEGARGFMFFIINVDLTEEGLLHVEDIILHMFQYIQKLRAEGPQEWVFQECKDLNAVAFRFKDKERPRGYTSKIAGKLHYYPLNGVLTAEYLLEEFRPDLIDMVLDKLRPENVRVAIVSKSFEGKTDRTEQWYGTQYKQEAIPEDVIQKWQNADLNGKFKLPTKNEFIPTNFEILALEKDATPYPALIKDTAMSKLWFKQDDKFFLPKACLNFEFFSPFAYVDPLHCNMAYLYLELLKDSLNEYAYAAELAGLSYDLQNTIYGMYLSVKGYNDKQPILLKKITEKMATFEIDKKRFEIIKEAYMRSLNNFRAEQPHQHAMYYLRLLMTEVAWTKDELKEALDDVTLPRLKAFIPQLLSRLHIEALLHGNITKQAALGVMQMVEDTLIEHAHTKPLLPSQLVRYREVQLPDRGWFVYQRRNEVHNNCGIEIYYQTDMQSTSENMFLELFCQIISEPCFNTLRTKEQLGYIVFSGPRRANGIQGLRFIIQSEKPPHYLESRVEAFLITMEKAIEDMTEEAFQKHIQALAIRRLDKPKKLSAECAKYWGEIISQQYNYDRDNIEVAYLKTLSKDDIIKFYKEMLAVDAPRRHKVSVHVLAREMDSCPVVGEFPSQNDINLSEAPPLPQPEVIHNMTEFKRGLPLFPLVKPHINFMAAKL
Experimental: (§1) 16 µM T40 was incubated with or without 22 nM IDE (37°C) and the reaction stopped as indicated. (B) Specificity of IDE activity. […] For (A) and (B), digestion products were resolved (10% Tris-Tricine SDS-PAGE), electro-blotted onto nitrocellulose and probed with KD69 (specific for the T40). Marker proteins are indicated. Arrows indicate the positions of T40 monomers and dimers. (C) 60 µM T40 was incubated with or without 50 nM IDE (37°C) and products separated by RP-HPLC (peaks annotated a–h). (D) Positions of IDE initial cleavages (arrows) within T40 (2 min digestion). (E) Identity of the major peptides (italics) and of CSR species in peaks a–h, analyzed by MS.
(A) Positions of IDE initial cleavages (arrows) within AChE586-599. […] 63 µM AChE586-599 was incubated with or without 45 nM IDE (A) or 273 nM IDE (B)(37°C, 30 min) and RP-HPLC peaks analyzed by MS. […] AChE586-599 oligomers (16 µM) cross-linked by photo-induced cross-linking were incubated with or without 16.3 nM IDE (37°C). Digestion products were resolved (16.5% Tris-Tricine SDS-PAGE), electro-blotted onto nitrocellulose and probed with Mab 105A (specific for AChE586-599 in β-sheet conformation). Marker proteins are indicated.
To identify degradation products, 60 µM T40 was incubated with 50 nM IDE; 63 µM AChE586-599 with 45 nM or 273 nM IDE; and 40 µM AChE586-599 with 772 nM NEP and separated by reverse phase-HPLC (RP-HPLC). Peaks were collected and identities determined on a Q-TOF Micro mass spectrometer (Micromass, UK) with MassLynx 4.0 and MaxEnt 3 software. Lyophilized HPLC separated T40/IDE products were used for surface tension and seeding experiments.
Reaction products were resolved by RP-HPLC with a Sephasil C4 column (5 µm, 4.6×250 mm; Amersham Biosciences, UK) using a 5–95% linear gradient of acetonitrile in 0.1% trifluoroacetic acid over 25 min (flow rate 1 ml/min). The eluent was monitored by UV absorption at 280 nm.

[3] = molecular target: T1, IDE; assay: IDE digestion of T40, SDS-PAGE and western blot with KD69; conditions: 16 µM T40, 22 nM IDE, 37°C
Experimental: as §1
(§2) IDE and NEP (Merck, UK) digestions were at 37°C in 100 mM KHPO4/KH2PO4 buffer pH 7.5 (buffer A) or 100 mM Tris-HCl pH 7.4, 1% Triton X-100 (buffer B) respectively. 16 µM T40 was incubated with 22 nM IDE or 309 nM NEP, and 16 or 14.8 µM AChE586-599 oligomers with 16.3 nM IDE or 285 nM NEP. Reactions were stopped by boiling in a Laemmli's dissociation buffer with 100 mM DTT and subjected to SDS-PAGE (10% Tris-Tricine for T40 and 16.5% Tris-Tricine for AChE586-599 oligomers). […]

[4] = system: IDE (insulysin), 45 nM; assay: IDE in 100 mM KHPO4/KH2PO4 buffer pH 7.5 (buffer A); conditions: 37°C, up to 30 min
[5] = system: NEP (neprilysin), 772 nM; assay: NEP in 100 mM Tris-HCl pH 7.4, 1% Triton X-100 (buffer B); conditions: 37°C, up to 4 hours
[6] = system: NEP (neprilysin), 1.2 µM; assay: as above; conditions: 37°C, up to 4 hours
[7] = system: IDE (insulysin), 50 nM; assay: IDE in 100 mM KHPO4/KH2PO4 buffer pH 7.5 (buffer A); conditions: 37°C, up to 2 hours
[8] = molecular target: T1, IDE; assay: Specificity/inhibition of T40-degrading activity of IDE; assay type: biochemical; design: purchased Merck, UK; conditions: 16 µM T40, 22 nM IDE, 37°C, 90 min
Experimental: as §1, §2

`CSCC[C@H](NC(=O)[C@H](Cc1ccc(O)cc1)NC(=O)[C@H](CO)NC(=O)[C@H](CO)NC(=O)[C@H](Cc1c[nH]c2ccccc12)NC(=O)[C@H](CCCNC(=N)N)NC(=O)[C@H](Cc1c[nH]cn1)NC(=O)[C@H](Cc1ccccc1)NC(=O)[C@H](CCC(=O)O)NC(=O)[C@H](C)N)C(=O)N[C@H](C(=O)N[C@@H](Cc1c[nH]cn1)C(=O)N[C@@H](Cc1c[nH]c2ccccc12)C(=O)N[C@@H](CCCCN)C(=O)O)C(C)C` [AChE586-599] (H-AEFHRWSSYMVHWK-OH) was tested, and the “time for complete digestion of AChE586-599 by NEP” value ([1]; 40 µM AChE586-599, 772 nM NEP, Tris-HCl pH 7.4, 1% Triton X-100, RP-HPLC/MS) was ≤ 4 h, the “degradation of AChE586-599 by IDE” value ([2]; 63 µM AChE586-599, 45 nM IDE, 30 min, buffer pH 7.5, RP-HPLC/MS) was “degraded” and the “extent of AChE586-599 digestion by IDE” value ([2]; 63 µM AChE586-599, 273 nM IDE, 30 min, RP-HPLC/MS) was “complete IDE digestion”.
For `CSCC[C@H](NC(=O)[C@H](Cc1ccc(O)cc1)NC(=O)[C@H](CO)NC(=O)[C@H](CO)NC(=O)[C@H](Cc1c[nH]c2ccccc12)NC(=O)[C@H](CCCNC(=N)N)NC(=O)[C@H](Cc1c[nH]cn1)NC(=O)[C@H](Cc1ccccc1)NC(=O)[C@H](CCC(=O)O)NC(=O)[C@H](C)NC(=O)[C@H](CCCCN)NC(=O)[C@H](Cc1c[nH]c2ccccc12)NC(=O)[C@H](CCC(N)=O)NC(=O)[C@H](CCCNC(=N)N)NC(=O)[C@H](CCC(=O)O)NC(=O)[C@H](C)NC(=O)[C@H](CCC(=O)O)NC(=O)[C@H](CC(=O)O)NC(=O)[C@H](CC(C)C)NC(=O)[C@@H](NC(=O)[C@@H](N)CC(=O)O)[C@@H](C)O)C(=O)N[C@H](C(=O)N[C@@H](Cc1c[nH]cn1)C(=O)N[C@@H](Cc1c[nH]c2ccccc12)C(=O)N[C@@H](CCCCN)C(=O)N[C@@H](CC(N)=O)C(=O)N[C@@H](CCC(N)=O)C(=O)N[C@@H](Cc1ccccc1)C(=O)N[C@@H](CC(=O)O)C(=O)N[C@@H](Cc1c[nH]cn1)C(=O)N[C@@H](Cc1ccc(O)cc1)C(=O)N[C@@H](CO)C(=O)N[C@@H](CCCCN)C(=O)N[C@@H](CCC(N)=O)C(=O)N[C@@H](CC(=O)O)C(=O)N[C@@H](CCCNC(=N)N)C(=O)N[C@@H](CS)C(=O)N[C@@H](CO)C(=O)N[C@@H](CC(=O)O)C(=O)N[C@@H](CC(C)C)C(=O)O)C(C)C` [T40] (H-DTLDEAERQWKAEFHRWSSYMVHWKNQFDHYSKQDRCSDL-OH), the “effect of NEP exposure on peptide level” value [1] was “remained unchanged”, the “incubation time for complete disappearance of monomeric T40 with IDE” value ([3]; 100 mM KHPO4/KH2PO4 buffer pH 7.5, western blot KD69) was ≤ 80 min and the “fate of dimeric T40 with IDE” value ([3]; buffer pH 7.5, up to 80 min, western blot KD69) was “remained undigested”. For the same molecule, the “extent of T40 digestion by IDE at 30 min” value ([2]; 60 µM T40, 50 nM IDE, buffer pH 7.5, RP-HPLC C4, UV 280 nm) was “near complete digestion”.
In the case of AEFHRWSSYMVHWK, the cleaved bond [4] is reported as “Ser8-Tyr9, first_seen, 30 min; also recorded: His12-Trp13, first_seen, 30 min” and the cleaved bond [5] is reported as “Ser8-Tyr9, first_seen, 30 min; also recorded: His12-Trp13, first_seen, 30 min; also recorded: H4-R5, first_seen, 30 min”.
With “DTLDEAERQWKAEFHRWSSYMVHWKNQFDHYSKQDRCSDL” the not cleaved [6] was “levels remained unchanged after exposure to NEP (4 hours)” and the cleaved bond [7] was “Phe14-His15, first_seen, 2 min; also recorded: Ser19-Tyr20, first_seen, 2 min; also recorded: Trp24-Lys25, first_seen, 2 min”.
insulin was tested, and the “concentration giving complete inhibition of IDE degradation of T40” value ([8]; western blot, equimolar to T40) was 16 µM and the “inhibition of IDE degradation of T40” value ([8]; insulin or IgG 2–16 µM, 1,10-phenanthroline 1 and 10 mM) was “dose dependent inhibition”.
For substance P [reference compound], the “effect of NEP exposure on peptide level” value [1] was “degradation”.
